Source: patent US4845121A, “Aci-reductone compounds belonging to the 6,7-disubstituted-3,4-dihydro benzopyan-2H-one class having antiaggregatory properties” (The Ohio State University Research Foundation, priority 1986, dated 1989)
Entries after “also recorded” stand apart in the source; their conditions may differ.

What was measured:
[1] = tested on: human platelets (ADP-induced aggregation); experiment: ADP-induced human platelet aggregation (turbidometric, secondary aggregation); format: cell-based; conditions: for rank order of potency, aggregation and serotonin secretory responses to ADP and AA: aggregation and serotonin secretion together; for IC50: Homo sapiens, Platelet, inhibitor 1 min before ADP (1-5 uM), secondary aggregation only, mean ± S.E.M., n = 3-9 donors; for fold more potent than clofibric acid as inhibitor of ADP-induced platelet activation: versus clofibric acid 1
Experimental: (§1) The antiaggregatory action of the compounds of the present invention was determined using the following procedure: ADP and AA were obtained from Sigma Chemical Co., (St. Louis, MO). [^14 C]-Serotonin (57 mCi/mmol) and [^3 H]-AA (210 Ci/mmol) were supplied by Amersham (Arlington Heights, IL). U46619 (15S-hydroxy-11α,9α-epoxymethano-prosta-5z,13E-dienoic acid) was purchased from Upjohn Diagnostics (Kalamazoo, MI). Blood was collected from normal human volunteers who reported to be free of medication for at least 10 days prior to blood collection. Washed platelets were prepared and suspended in a modified Tyrode's solution, pH 7.4 as described in Navran, S. S., et al., Thromb. […] The platelet count was adjusted to 3×10^8 /ml for aggregation, secretion and biochemical studies.
(§2) Inhibitors were added one minute prior to induction of platelet activation. Secretion of the contests of platelet dense granules was measured by monitoring the release of radioactivity from platelets prelabeled with [^14 C]-serotonin. […] To study the release of AA from platelet phospholipids, washed platelets were incubated with [^3 H]-AA (3.6 mCi/10^9 platelets) for two hours at room temperature prior to the final centrifugation and resuspension of the washing procedure. Released [^3 H]-AA was quantified from supernatants of stimulated platelet samples in a manner identical to the determination of serotonin secretion.

[2] = tested on: human platelets (arachidonic acid-induced aggregation); experiment: Arachidonic acid-induced human platelet aggregation (turbidometric); format: cell-based; conditions: for IC50: Homo sapiens, Platelet, inhibitor 1 min before AA (0.2-1 mM), mean ± S.E.M., n = 3-9 donors; for fold more potent inhibitor of AA-induced aggregation: implied versus clofibric acid; for antiaggregatory potency relative to clofibric acid (in words): prostaglandin-dependent pathway of platelet activation
Experimental: as §1, §2

[3] = tested on: human platelets (U46619, thromboxane A2 agonist-induced aggregation); experiment: U46619-induced human platelet aggregation (turbidometric, + ASA); format: cell-based; conditions: for IC50: Homo sapiens, Platelet, inhibitor 1 min before U46619 (0.3 uM), aspirin 1 mM added, mean ± S.E.M., n = 3-9 donors
Experimental: as §1, §2

[4] = tested on: human platelets (ADP-induced serotonin secretion); experiment: ADP-induced [14C]-serotonin secretion; format: cell-based; conditions: Platelet, inhibitor 1 min before ADP (1-5 uM), mean ± S.E.M., n = 3-9 donors
Experimental: as §1
Inhibitors were added one minute prior to induction of platelet activation. Secretion of the contests of platelet dense granules was measured by monitoring the release of radioactivity from platelets prelabeled with [^14 C]-serotonin. […] Released [^3 H]-AA was quantified from supernatants of stimulated platelet samples in a manner identical to the determination of serotonin secretion.

[5] = tested on: human platelets (arachidonic acid-induced serotonin secretion); experiment: Arachidonic acid-induced [14C]-serotonin secretion; format: cell-based; conditions: for IC50: Homo sapiens, Platelet, inhibitor 1 min before AA (0.2-1 mM), mean ± S.E.M., n = 3-9 donors
Experimental: as §1, §2

[6] = tested on: human platelets (U46619-induced serotonin secretion); experiment: U46619-induced [14C]-serotonin secretion (+ ASA); format: cell-based; conditions: for IC50: Homo sapiens, Platelet, inhibitor 1 min before U46619 (0.3 uM), aspirin 1 mM added, mean ± S.E.M., n = 3-9 donors; for fold more potent than clofibric acid as inhibitor of U46619-evoked serotonin secretion: versus clofibric acid 1
Experimental: as §1, §2

[7] = tested on: human platelets (thrombin-induced [3H]-AA release); experiment: Thrombin-induced [3H]-arachidonic acid release; format: cell-based; conditions: for IC50: Homo sapiens, Platelet, inhibitor 1 min before thrombin (0.5 U/ml), terminated at 4 min, 3-5 donors; for inhibition of AA release (in words): thrombin-induced AA release / release from platelet membrane phospholipids
Experimental: (§3) The antiaggregatory action of the compounds of the present invention was determined using the following procedure: ADP and AA were obtained from Sigma Chemical Co., (St. Louis, MO). [^14 C]-Serotonin (57 mCi/mmol) and [^3 H]-AA (210 Ci/mmol) were supplied by Amersham (Arlington Heights, IL). U46619 (15S-hydroxy-11α,9α-epoxymethano-prosta-5z,13E-dienoic acid) was purchased from Upjohn Diagnostics (Kalamazoo, MI). Blood was collected from normal human volunteers who reported to be free of medication for at least 10 days prior to blood collection. Washed platelets were prepared and suspended in a modified Tyrode's solution, pH 7.4 as described in Navran, S. S., et al., Thromb. Res., 33: 449-510 (1984). The platelet count was adjusted to 3×10^8 /ml for aggregation, secretion and biochemical studies.
Platelet aggregation studies were performed according to the turbidometric method of Born, as described in Nature, 194: 927-929 (1962), in a Payton Model 600 dual channel aggregometer interfaced to an Apple microcomputer for acquistion, quantitation, presentation, and management of platelet aggregation data, as described in Huzoor-Akbar, et al., 32 Thromb. Res., 335-341 (1983). Inhibitors were added one minute prior to induction of platelet activation. Secretion of the contests of platelet dense granules was measured by monitoring the release of radioactivity from platelets prelabeled with [^14 C]-serotonin. Malondialdehyde formation induced by AA was determined as described in Huzoor-Akar et al., Biochem Pharmacol., 30: 2013-2020 (1981). To study the release of AA from platelet phospholipids, washed platelets were incubated with [^3 H]-AA (3.6 mCi/10^9 platelets) for two hours at room temperature prior to the final centrifugation and resuspension of the washing procedure. Released [^3 H]-AA was quantified from supernatants of stimulated platelet samples in a manner identical to the determination of serotonin secretion.
The reactions were terminated at 4 minutes and [^3 H]-AA was sampled from platelet supernatants and analyzed as described herein. Data are averages ± S.E.M. from 3-5 donors.

[8] = tested on: human platelets (AA-induced MDA formation); experiment: AA-induced malondialdehyde (MDA) formation; format: cell-based; conditions: Platelet, mean+S.E., N=3-5
Experimental: as §3, with “The platelet count was adjusted to 3×10^8 /ml for aggregation, secretion and biochemical studies.” left out
Platelet aggregation studies were performed according to the turbidometric method of Born, as described in Nature, 194: 927-929 (1962), in a Payton Model 600 dual channel aggregometer interfaced to an Apple microcomputer for acquistion, quantitation, presentation, and management of platelet aggregation data, as described in Huzoor-Akbar, et al., 32 Thromb. […] Secretion of the contests of platelet dense granules was measured by monitoring the release of radioactivity from platelets prelabeled with [^14 C]-serotonin. Malondialdehyde formation induced by AA was determined as described in Huzoor-Akar et al., Biochem Pharmacol., 30: 2013-2020 (1981). […]

[9] = tested on: human platelets (collagen-induced aggregation); conditions: literature; cited from earlier work
[10] = tested on: human platelets (collagen-induced serotonin secretion); conditions: Witiak et al., J. Med Chem. 25: 90 (1982); cited from earlier work
[11] = tested on: hyper-aggregatory responses to inducers of the prostaglandin-dependent pathway; conditions: hyperlipidemic patients; Vargaftig et al. (1981); cited from earlier work

IC50 [1] [µM]	IC50 [2] [µM]	IC50 [3] [mM]	IC50 [4] [µM]	IC50 [5] [µM]	IC50 [6] [mM]	IC50 [7] [mM]	SMILES	inhibition of (secondary wave of) ADP-induced aggregation (in words) [1]	rank order of potency, aggregation and serotonin secretory responses to ADP and AA [1]	fold more potent than clofibric acid as inhibitor of ADP-induced platelet activation [1]	inhibition of AA-induced aggregation (in words) [2]	rank order of inhibitory potency, AA-induced aggregation [2]	fold more potent inhibitor of AA-induced aggregation [2]	antiaggregatory potency relative to clofibric acid (in words) [2]	inhibition of U46619-induced aggregation/responses (in words) [3]	rank order of inhibitory potency, AA-induced serotonin secretion [5]	rank order of inhibitory potency against U46619-induced serotonin secretion [6]	fold more potent than clofibric acid as inhibitor of U46619-evoked serotonin secretion [6]	rank order of inhibitory potency, thrombin-induced AA release [7]	inhibition of AA release (in words) [7]	further results
533 ± 71	851 ± 85	1.48 ± 0.277	419 ± 90	1010 ± 142	1.44 ± 0.239	3.87	O=C(O)C1Cc2cc(Cl)ccc2O1 (stereo not drawn) [compound X, 5-chloro-2,3-dihydrobenzofuran-2-carboxylic acid]	concentration-dependent inhibition	benzopyranone analogue>2,3-dihydrobenzofuran analog>clofibric acid	about 2 fold	concentration-dependent inhibition	IX>X>1	approximately 4 fold	more potent antiaggregatory agents than clofibric acid	antagonizes the proaggregatory actions of the thromboxane A2 agonist U46619; also recorded: concentration-dependent inhibitors of U46619-induced aggregation	IX>X>1	dihydrobenzofuran>benzopyranone>clofibric acid	about 2 fold	IX>>X=1; also recorded: IX>1=X	blocks the release and subsequent metabolism of AA	IC50 [8]: 908 ± 137 µM
–	–	–	–	–	–	–	O=C1OC(c2ccc(Cl)cc2)C(O)=C1O (stereo not drawn) [compound 2, 2-hydroxytetronic acid aci-reductone]	–	–	–	–	–	–	–	–	–	–	–	–	–	inhibition of collagen-induced human platelet aggregation/activation (in words) [9]: inhibit collagen-inducedhuman platelet aggregation; inhibition of collagen-induced secretion of [14C]-serotonin (in words) [10]: in a concentration-dependent manner at equivalent doses
–	–	–	–	–	–	–	CCOC(=O)C(C)(C)Oc1ccc(Cl)cc1 [clofibrate]	–	–	–	–	–	–	–	–	–	–	–	–	–	effect of therapy on hyper-aggregatory responses (in words) [11]: reverses the hyper-aggregatory responses to inducers of the prostaglandin-dependent pathway
363 ± 159	739 ± 86	1.5 ± 0.16	466 ± 90	814 ± 90	2.38 ± 0.394	0.432	O=c1oc2ccc(Cl)cc2c(O)c1O [compound IX, 6-chloro-3,4-dihydroxy-2H-1-benzopyran-2-one]	potent inhibitor of thrombin-induced AA release and ADP- or AA-induced aggregation; also recorded: concentration-dependent inhibition	benzopyranone analogue>2,3-dihydrobenzofuran analog>clofibric acid	about 2 fold	potent inhibitor of thrombin-induced AA release and ADP- or AA-induced aggregation; also recorded: concentration-dependent inhibition	IX>X>1	approximately 4 fold	more potent antiaggregatory agents than clofibric acid	inhibits U46619-induced responses in human platelets; also recorded: concentration-dependent inhibitors of U46619-induced aggregation	IX>X>1	dihydrobenzofuran>benzopyranone>clofibric acid	about 2 fold	IX>>X=1; also recorded: IX>1=X	blocks AA release from platelet membrane phospholipids; also recorded: potent inhibitor of thrombin-induced AA release	inhibition of AA metabolism (in words) ([2]; inferred from AA-mediated versus U46619 responses): acts as an inhibitor of AA metabolism
